target: T1, HEK-Blue-hTLR8 cells (Homo sapiens, UniProt Q9NR97); test: HEK-Blue-hTLR8 cell inhibition assay; format: cell-based; conditions: R848 3 µM, 16 h, OD 620 nm, read-out: TLR8 IC50
T1 construct: expressed in transfected cells; host or cells: HEK-Blue-hTLR8 cells (HEK293-derived reporter line)
T1 sequence (Q9NR97 27-1041): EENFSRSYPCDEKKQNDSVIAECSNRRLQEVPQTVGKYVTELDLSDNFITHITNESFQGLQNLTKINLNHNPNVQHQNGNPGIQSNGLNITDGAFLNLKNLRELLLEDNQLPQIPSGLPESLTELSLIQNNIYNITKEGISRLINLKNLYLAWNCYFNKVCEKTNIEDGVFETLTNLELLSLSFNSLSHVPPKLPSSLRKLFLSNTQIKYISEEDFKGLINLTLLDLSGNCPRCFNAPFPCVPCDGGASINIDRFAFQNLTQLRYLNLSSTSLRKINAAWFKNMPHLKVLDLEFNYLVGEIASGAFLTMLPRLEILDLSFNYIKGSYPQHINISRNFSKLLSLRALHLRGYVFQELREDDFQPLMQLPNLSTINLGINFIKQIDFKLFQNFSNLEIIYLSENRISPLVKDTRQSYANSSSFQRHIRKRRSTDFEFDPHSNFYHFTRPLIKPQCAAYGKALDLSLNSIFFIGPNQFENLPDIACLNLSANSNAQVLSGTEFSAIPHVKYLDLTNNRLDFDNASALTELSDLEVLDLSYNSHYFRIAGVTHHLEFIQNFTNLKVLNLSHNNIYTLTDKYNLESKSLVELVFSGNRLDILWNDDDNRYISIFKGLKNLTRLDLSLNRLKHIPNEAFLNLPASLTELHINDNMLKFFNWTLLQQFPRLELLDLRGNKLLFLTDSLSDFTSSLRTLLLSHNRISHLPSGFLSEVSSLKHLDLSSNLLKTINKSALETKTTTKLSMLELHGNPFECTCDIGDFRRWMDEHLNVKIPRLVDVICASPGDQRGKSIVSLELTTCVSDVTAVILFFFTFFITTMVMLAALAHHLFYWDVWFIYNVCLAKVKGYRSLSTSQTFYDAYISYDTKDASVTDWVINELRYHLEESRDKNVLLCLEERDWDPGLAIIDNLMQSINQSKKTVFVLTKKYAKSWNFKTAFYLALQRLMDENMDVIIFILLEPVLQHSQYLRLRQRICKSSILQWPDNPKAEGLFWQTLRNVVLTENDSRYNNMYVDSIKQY
Description: HEK-Blue-hTLR7/8/9 cell inhibition assay
1. HEK-Blue-hTLR7/8 cells (1 × 10^4 cells/well) and HEK-Blue-hTLR9 cells (1.5 × 10^4 cells/well) were seeded in a 384-well cell culture plate, with a volume of 30 µL per well. The plate was incubated at 37°C in a 5% CO2 incubator for 4 h. 2. The compound was prepared with DMSO and diluted in DMEM medium to 10 concentrations (1:3 dilution), with final concentrations of 10000, 3333.3, 1111.1, 370.4, 123.5, 41.2, 13.7, 4.6, 1.5, and 0.5 nM; R848 was prepared with DMSO and diluted in DMEM medium, with final concentrations of 0.8 µM (HEK-Blue-hTLR7) and 3 µM (HEK-Blue-hTLR8); ODN2006 was prepared with endotoxin-free water and diluted in DMEM medium, with a final concentration of 1 µM. 3. Cells treated with DMSO were used as the blank control group, while cells treated solely with Resiquimod (R848) were used as the positive control group for HEK-Blue-hTLR7/8, and cells treated solely with ODN2006 were used as the positive control group for HEK-Blue-hTLR9. Cells treated with the test compound together with R848 or ODN2006 were used as the test group. Two parallel wells were set for each group and were placed at 37°C in a 5% CO2 incubator for incubation. 4. After being incubated for 4 h, the 384-well plate of HEK-Blue-hTLR7/8 was taken out from the incubator, and R848 alone or both R848 and the diluted compound were separately added into each well. The plate was placed at 37°C in a 5% CO2 incubator for incubation for 16 h; the 384-well plate of HEK-Blue-hTLR9 was taken out from the incubator, and ODN2006 alone or both ODN2006 and the diluted compound were added separately to each well. The plate was incubated at 37°C in a 5% CO2 incubator for 16 h. 5. After being incubated for 16 h, the 384-well plate was removed from the incubator and centrifuged at 1000 rpm for 1 minute. The optical density value of each well at 620 nm was measured using a multifunctional microplate reader. 6. The cell inhibition rate was calculated as (1-(OD620 test group-OD620 blank group)/(OD620 positive group-OD620 blank group))×100%, and the half maximal inhibitory concentration (IC50) was calculated through curve fitting. Table 1: Activity of the compounds of the present disclosure in HEK-Blue-hTLR7/8/9 cellular assays

SMILES | IC50
CN1CCN(c2nnc([C@]34CN(c5ccc(C#N)c6ncccc56)C[C@@]3(C(F)(F)F)C4)o2)CC1 [Compound 1, 5-((1S,5R)-1-(5-(4-methylpiperazin-1-yl)-1,3,4-oxadiazol-2-yl)-5-(trifluoromethyl)-3-azabicyclo[3.1.0]hexan-3-yl)quinoline-8-carbonitrile] | < 100 nM
FC(F)(F)c1ccc(N2C[C@]3(c4nnc(C5(F)CCNCC5)o4)C[C@]3(C(F)(F)F)C2)c2cccnc12 [Compound 3, 2-(4-fluoropiperidin-4-yl)-5-((1S,5R)-5-(trifluoromethyl)-3-(8-(trifluoromethyl)quinolin-5-yl)-3-azabicyclo[3.1.0]hexan-1-yl)-1,3,4-oxadiazole] | < 100 nM
CN1CC(c2nnc([C@]34CN(c5ccc(C(F)(F)F)c6ncccc56)C[C@@]3(C(F)(F)F)C4)o2)C1 [Compound 4, 2-(1-methylazetidin-3-yl)-5-((1S,5R)-5-(trifluoromethyl)-3-(8-(trifluoromethyl)quinolin-5-yl)-3-azabicyclo[3.1.0]hexan-1-yl)-1,3,4-oxadiazole] | < 100 nM
N#Cc1ccc(N2C[C@]3(c4nnc(N)o4)C[C@]3(C(F)(F)F)C2)c2cccnc12 [Compound 7, 5-((1S,5R)-1-(5-amino-1,3,4-oxadiazol-2-yl)-5-(trifluoromethyl)-3-azabicyclo[3.1.0]hexan-3-yl)quinoline-8-carbonitrile] | < 100 nM
CN1CCC(C)(c2nnc([C@]34CN(c5ccc(C#N)c6ncccc56)C[C@@]3(C(F)(F)F)C4)o2)CC1 [Compound 8, 5-((1S,5R)-1-(5-(1,4-dimethylpiperidin-4-yl)-1,3,4-oxadiazol-2-yl)-5-(trifluoromethyl)-3-azabicyclo[3.1.0]hexan-3-yl)quinoline-8-carbonitrile] | < 100 nM
CN1[C@@H]2CC[C@H]1C[C@H](c1nnc([C@]34CN(c5ccc(C#N)c6ncccc56)C[C@@]3(C(F)(F)F)C4)o1)C2 [Compound 11, 5-((1S,5R)-1-(5-((1R,3S,5S)-8-methyl-8-azabicyclo[3.2.1]octan-3-yl)-1,3,4-oxadiazol-2-yl)-5-(trifluoromethyl)-3-azabicyclo[3.1.0]hexan-3-yl)quinoline-8-carbonitrile] | < 100 nM
N#Cc1ccc(N2C[C@]3(c4nnc(C5CCOCC5)o4)C[C@]3(C(F)(F)F)C2)c2cccnc12 [Compound 12, 5-((1S,5R)-1-(5-(tetrahydro-2H-pyran-4-yl)-1,3,4-oxadiazol-2-yl)-5-(trifluoromethyl)-3-azabicyclo[3.1.0]hexan-3-yl)quinoline-8-carbonitrile] | < 100 nM
CN1CC2CC1CC2c1nnc([C@]23CN(c4ccc(C#N)c5ncccc45)C[C@@]2(C(F)(F)F)C3)o1 (stereo partly drawn) [Compound 14, 5-((1S,5R)-1-(5-(2-methyl-2-azabicyclo[2.2.1]heptan-5-yl)-1,3,4-oxadiazol-2-yl)-5-(trifluoromethyl)-3-azabicyclo[3.1.0]hexan-3-yl)quinoline-8-carbonitrile] | < 100 nM
N#Cc1ccc(N2C[C@]3(c4nnc(C5CC6(CNC6)C5)o4)C[C@]3(C(F)(F)F)C2)c2cccnc12 [Compound 18, 5-((1S,5R)-1-(5-(2-azaspiro[3.3]heptan-6-yl)-1,3,4-oxadiazol-2-yl)-5-(trifluoromethyl)-3-azabicyclo[3.1.0]hexan-3-yl)quinoline-8-carbonitrile] | < 100 nM
CN1CC2(CC(c3nnc([C@]45CN(c6ccc(C#N)c7ncccc67)C[C@@]4(C(F)(F)F)C5)o3)C2)C1 [Compound 19, 5-((1S,5R)-1-(5-(2-methyl-2-azaspiro[3.3]heptan-6-yl)-1,3,4-oxadiazol-2-yl)-5-(trifluoromethyl)-3-azabicyclo[3.1.0]hexan-3-yl)quinoline-8-carbonitrile] | < 100 nM
N#Cc1ccc(N2C[C@]3(c4nnc([C@H]5CC[C@H](N)CC5)o4)C[C@]3(C(F)(F)F)C2)c2cccnc12 [Compound 20, 5-((1S,5R)-1-(5-((1R,4S)-4-aminocyclohexyl)-1,3,4-oxadiazol-2-yl)-5-(trifluoromethyl)-3-azabicyclo[3.1.0]hexan-3-yl)quinoline-8-carbonitrile] | < 100 nM

Other lines, results leading:

IC50 | SMILES
> 1000 nM | Cc1cc(N2CC3(c4nnc(C5CCN(C)CC5)o4)C[C@]3(C(F)(F)F)C2)c2cnn(C)c2n1 (stereo partly drawn) [Compound 2, 2-((5R)-3-(1,6-dimethyl-1H-pyrazolo[3,4-b]pyridin-4-yl)-5-(trifluoromethyl)-3-azabicyclo[3.1.0]hexan-1-yl)-5-(1-methylpiperidin-4-yl)-1,3,4-oxadiazole]
> 1000 nM | CN1CCC(c2nnc([C@]34CN(c5ccc(C#N)c6ncccc56)C[C@@]3(C(F)(F)F)C4)n2C)CC1 [Compound 5, 5-((1S,5R)-1-(4-methyl-5-(1-methylpiperidin-4-yl)-4H-1,2,4-triazol-3-yl)-5-(trifluoromethyl)-3-azabicyclo[3.1.0]hexan-3-yl)quinoline-8-carbonitrile]
< 100 nM | CN1CCC(Nc2nnc([C@]34CN(c5ccc(C#N)c6ncccc56)C[C@@]3(C(F)(F)F)C4)o2)CC1 [Compound 6, 5-((1S,5R)-1-(5-((1-methylpiperidin-4-yl)amino)-1,3,4-oxadiazol-2-yl)-5-(trifluoromethyl)-3-azabicyclo[3.1.0]hexan-3-yl)quinoline-8-carbonitrile]
< 100 nM | CN1CCC(c2nnc([C@]34CN(c5ccc(C#N)c6ncccc56)C[C@@]3(C(F)(F)F)C4)[nH]2)CC1 [Compound 9, 5-((1S,5R)-1-(5-(1-methylpiperidin-4-yl)-4H-1,2,4-triazol-3-yl)-5-(trifluoromethyl)-3-azabicyclo[3.1.0]hexan-3-yl)quinoline-8-carbonitrile]
< 100 nM | CN1CC2(CCC(c3nnc([C@]45CN(c6ccc(C#N)c7ncccc67)C[C@@]4(C(F)(F)F)C5)o3)CC2)C1 [Compound 13, 5-((1S,5R)-1-(5-(2-methyl-2-azaspiro[3.5]nonan-7-yl)-1,3,4-oxadiazol-2-yl)-5-(trifluoromethyl)-3-azabicyclo[3.1.0]hexan-3-yl)quinoline-8-carbonitrile]
< 100 nM | CN1CCC(Oc2nnc([C@]34CN(c5ccc(C#N)c6ncccc56)C[C@@]3(C(F)(F)F)C4)o2)CC1 [Compound 15, 5-((1S,5R)-1-(5-((1-methylpiperidin-4-yl)oxy)-1,3,4-oxadiazol-2-yl)-5-(trifluoromethyl)-3-azabicyclo[3.1.0]hexan-3-yl)quinoline-8-carbonitrile]
< 100 nM | N#Cc1ccc(N2C[C@]3(c4nnc(C5CCN(CC(N)=O)CC5)o4)C[C@]3(C(F)(F)F)C2)c2cccnc12 [Compound 17, 2-(4-(5-((1S,5R)-3-(8-cyanoquinolin-5-yl)-5-(trifluoromethyl)-3-azabicyclo[3.1.0]hexan-1-yl)-1,3,4-oxadiazol-2-yl)piperidin-1-yl)acetamide]
